Assay results taken from ChEMBL document CHEMBL3120047, “Ligand bioactive conformation plays a critical role in the design of drugs that target the hepatitis C virus NS3 protease” (J Med Chem, 2014).
Non-standard residues stand in square brackets, D forms with d. Residues, ends and D or L forms follow the SMILES beside them. *: point of attachment. Hyp = O=C(O)[C@@H]1C[C@@H](O)CN1; Nva = CCC[C@H](N)C(=O)O; Bn = c1ccc(C*)cc1

Test: Inhibition of HCV genotype 1b NS3/NS4A protease using DDIVPCSMSYTW as substrate by radiometric enzymatic assay
Parameters: species or system Hepatitis C virus subtype 1b

**Q.** With `C=C[C@@H]1C[C@]1(NC(=O)[C@@H]1C[C@@H](Oc2cc(-c3ccccc3)nc3cc(OC)ccc23)CN1C(=O)[C@@H](NC(=O)OC(C)(C)C)C(C)(C)C)C(=O)O` as the compound, how does the Ki read?
**A.** 20 nM

**Q.** For `C=C[C@@H]1C[C@]1(NC(=O)[C@@H]1C[C@@H](Oc2cc(-c3ccccc3)nc3cc(OC)ccc23)CN1C(C)=O)C(=O)O`, which Ki is on record?
**A.** 28000 nM

**Q.** For `C=C[C@@H]1C[C@]1(NC(=O)[C@@H]1C[C@@H](Oc2ccnc3ccccc23)CN1C(=O)[C@@H](NC(=O)OC(C)(C)C)C(C)(C)C)C(=O)O`, which Ki is on record?
**A.** 140 nM

**Q.** For `C=C[C@@H]1C[C@]1(NC(=O)[C@@H]1C[C@@H](Oc2cccc3ccccc23)CN1C(=O)[C@@H](NC(=O)OC(C)(C)C)C(C)(C)C)C(=O)O`, which Ki is on record?
**A.** 310 nM

**Q.** Which Ki does the source give for `C=C[C@@H]1C[C@]1(NC(=O)[C@@H]1C[C@@H](Oc2ccncc2)CN1C(=O)[C@@H](NC(=O)OC(C)(C)C)C(C)(C)C)C(=O)O` here?
**A.** 29000 nM

**Q.** For `C=C[C@@H]1C[C@]1(NC(=O)[C@@H]1C[C@@H](Oc2ccccc2)CN1C(=O)[C@@H](NC(=O)OC(C)(C)C)C(C)(C)C)C(=O)O`, which Ki is on record?
**A.** 29000 nM

**Q.** Which Ki does the source give for `C=C[C@@H]1C[C@]1(NC(=O)[C@@H]1CCCN1C(=O)[C@@H](NC(=O)OC(C)(C)C)C(C)(C)C)C(=O)O` here?
**A.** > 600000 nM

**Q.** For `COc1ccc2c(O[C@@H]3C[C@@H](C(=O)NC4(C(=O)O)CC4)N(C(=O)[C@@H](NC(=O)OC(C)(C)C)C(C)(C)C)C3)cc(-c3ccccc3)nc2c1`, which Ki is on record?
**A.** 350 nM

**Q.** Which Ki does the source give for `COc1ccc2c(O[C@@H]3C[C@@H](C(=O)NCC(=O)O)N(C(=O)[C@@H](NC(=O)OC(C)(C)C)C(C)(C)C)C3)cc(-c3ccccc3)nc2c1` here?
**A.** 56000 nM

**Q.** Which Ki does the source give for `C=C[C@@H]1C[C@]1(NC(=O)[C@@H]1C[C@@H](Oc2cc(-c3ccccc3)nc3cc(OC)ccc23)CN1C(=O)[C@H](C)NC(=O)OC(C)(C)C)C(=O)O` here?
**A.** 310 nM

**Q.** Which Ki does the source give for `C=C[C@@H]1C[C@]1(NC(=O)[C@@H]1C[C@@H](Oc2cc(-c3ccccc3)nc3cc(OC)ccc23)CN1C(=O)CNC(=O)OC(C)(C)C)C(=O)O` here?
**A.** 3000 nM

**Q.** Which Ki does the source give for `C=C[C@@H]1C[C@]1(NC(=O)[C@@H]1C[C@@H](Oc2cc(-c3ccccc3)nc3cc(OC)ccc23)CN1C(=O)CC(C)(C)C)C(=O)O` here?
**A.** 1600 nM

**Q.** For `CCC[C@H](NC(=O)[C@@H]1C[C@@H](OCc2ccccc2)CN1C(=O)[C@@H](NC(=O)[C@@H](NC(=O)[C@H](CC(=O)O)NC(=O)[C@H](CC(=O)O)NC(C)=O)[C@@H](C)CC)C(C)C)C(=O)O` (Ac-DDIV[Hyp](Bn)[Nva]-OH), which Ki is on record?
**A.** 1900 nM

**Q.** With H-DDIVPC-OH as the compound, how does the IC50 read?
**A.** 71000 nM

**Q.** And the Ki?
**A.** 19000 nM
